According to patent EP4310072A1, “ULTRAVIOLET ABSORBER, COMPOSITION, COSMETIC PRODUCT, AND PROCESS FOR PREPARING COSMETIC PRODUCT” (MFCI (Huanggang) Co., Ltd., priority 2021, dated 2023):

Tests used:
Assay type in all cases: physicochemical
[1] = Particle size testing by laser diffraction (Malvern MS2000 laser particle size analyzer, dispersant water); details: for αd5: Vd5/Vd100, distribution coefficient of particles with a particle size of 5 µm; for αd10: Vd10/Vd100, distribution coefficient of 10 µm particles; for Consistency / Span (β) / Specific surface area / Surface area-average particle size D[3,2] / Volume-average particle size D[4,3]: laser diffraction, dispersant water; for d(0.9): maximum particle size, cumulative distribution 90%; for d(0.5): median particle size, cumulative distribution 50%; for d(0.1): minimum particle size, cumulative distribution 10%; for Particle size distribution d(0.9) (integer) / Particle size distribution d(0.1) (integer): rounded to integer, Tables 14 and 16
Experimental: The particle size distribution and characteristics of the ultraviolet absorber described herein, such as the minimum particle size d(0.1), the d(0.9) and the consistency are determined by a laser diffraction method, and determination conditions are as follows: • particle size analyzer: Malvern MS2000 laser particle size analyzer; • name of an injector: Hydro 2000MU (A); • analysis mode: general; • particle size range: 0.02-2000 µm; • name of a dispersant: water.

[2] = Second dissolution experiment: sample stirred into the oil phase of an SPF 25 sunscreen oil, 6% DHHB; details: for increase rate of dissolution time: added concentration 6% versus 3%; for Sample dissolution time: added concentration 6%, 25°C, stirring rate 150 r/min, oil phase
Experimental: (§1) In this dissolution experiment, the agglomeration degree of the ultraviolet absorbers in the above examples and comparative examples was evaluated, and each sample of a certain mass was added into an oil phase and stirred at room temperature (25°C) at a stirring rate of 150 r/min for dissolution. The dissolution experiment was carried out on raw materials for preparation of a sunscreen oil with an SPF value of 25. Table 15 Raw material table
Except that DHHB is a solid, all other components are liquid oils. A production process includes: sequentially adding various components into an oil pot, and enabling a stirring function until the components are completely dissolved. Table 16 Sample property test result table

[3] = First dissolution experiment: sample stirred into the oil phase of an SPF 25 sunscreen oil, 3% DHHB; details: added concentration 3%, 25°C, stirring rate 150 r/min
Experimental: as §1, with “with a sun protection factor (SPF)” for “with an SPF”, “Table 13” for “Table 15”
Except that DHHB is a solid, all other components are liquid oils. A production process includes: sequentially adding various components into an oil pot, and enabling a stirring function until the components are completely dissolved. Table 14 Sample property test result table

Structure (SMILES) | difference between D[3,2] and D[4,3] [1] [µm] | αd5 [1] | αd10 [1] | Consistency [1] | Span (β) [1] | Specific surface area [1] [m^2/g] | Surface area-average particle size D[3,2] [1] [µm] | Volume-average particle size D[4,3] [1] [µm] | d(0.9) [1] [µm] | d(0.5) [1] [µm] | d(0.1) [1] [µm] | Particle size distribution d(0.9) (integer) [1] [µm] | increase rate of dissolution time [2] | Sample dissolution time [2] [min] | Particle size distribution d(0.1) (integer) ([1]; in µm) | Sample dissolution time [3] [min] | Particle size distribution d(0.1) (integer) [1]
CCCCCCOC(=O)c1ccccc1C(=O)c1ccc(N(CC)CC)cc1O [Example 1, 2-(4-N,N-diethylamino-2-hydroxybenzoyl) hexyl benzoate] | 11.727 | 0.0160 | 0.111 | 0.638 | 2.008 | 0.331 | 18.113 | 29.840 | 57.575 | 23.866 | 9.647 | 58 | – | – | – | – | –
CCCCCCOC(=O)c1ccccc1C(=O)c1ccc(N(CC)CC)cc1O [Comparative Example 1] | 128.616 | 0.005 | 0.122 | 2.44 | 10.995 | 0.258 | 23.263 | 151.879 | 518.950 | 51.970 | 10.517 | 519 | about 38% | 208 | 11 | 151 | –
CCCCCCOC(=O)c1ccccc1C(=O)c1ccc(N(CC)CC)cc1O [Comparative Example 2, reference compound] | – | – | – | – | – | – | – | – | – | – | – | 1000 | about 50% | 202 | – | 134 | 850 (±20)
CCCCCCOC(=O)c1ccccc1C(=O)c1ccc(N(CC)CC)cc1O [Example 4, 2-(4-N,N-diethylamino-2-hydroxybenzoyl) hexyl benzoate] | 11.215 | 0.002 | 0.074 | 0.62 | 1.998 | 0.284 | 21.149 | 32.364 | 62.903 | 25.939 | 11.066 | 63 | – | < 5 | 11 | < 5 | –
CCCCCCOC(=O)c1ccccc1C(=O)c1ccc(N(CC)CC)cc1O [Example 3, 2-(4-N,N-diethylamino-2-hydroxybenzoyl) hexyl benzoate] | 17.543 | 0.019 | 0.107 | 0.691 | 2.23 | 0.295 | 20.356 | 37.899 | 77.626 | 30.410 | 9.803 | 78 | – | < 5 | 10 | < 5 | –
CCCCCCOC(=O)c1ccccc1C(=O)c1ccc(N(CC)CC)cc1O [Example 5, 2-(4-N,N-diethylamino-2-hydroxybenzoyl) hexyl benzoate] | 21.881 | 0.037 | 0.095 | 0.596 | 1.944 | 0.281 | 21.390 | 43.271 | 43.271 | 21.390 | 10.747 | 43 | – | < 5 | 10 | < 5 | –
CCCCCCOC(=O)c1ccccc1C(=O)c1ccc(N(CC)CC)cc1O [Example 2, 2-(4-N,N-diethylamino-2-hydroxybenzoyl) hexyl benzoate] | 8.865 | 0.006 | 0.104 | 0.578 | 1.869 | 0.325 | 18.463 | 27.328 | 51.867 | 22.470 | 9.862 | 52 | – | < 5 | 10 | < 5 | –
